The term IC50 denotes the concentration at which inhibition is half-maximal.

The record followed here is US5773414A, “Endothelin antagonists” (Warner-Lambert Company, priority 1997, dated 1998).

The target in one experiment is T1, ETA (Oryctolagus cuniculus, UniProt A5A8K3).
T1 construct: The cells used were rabbit renal artery vascular smooth muscle cells; endogenous in cells; host or cells: rabbit renal artery vascular smooth muscle cells
T1 sequence (A5A8K3 21-427): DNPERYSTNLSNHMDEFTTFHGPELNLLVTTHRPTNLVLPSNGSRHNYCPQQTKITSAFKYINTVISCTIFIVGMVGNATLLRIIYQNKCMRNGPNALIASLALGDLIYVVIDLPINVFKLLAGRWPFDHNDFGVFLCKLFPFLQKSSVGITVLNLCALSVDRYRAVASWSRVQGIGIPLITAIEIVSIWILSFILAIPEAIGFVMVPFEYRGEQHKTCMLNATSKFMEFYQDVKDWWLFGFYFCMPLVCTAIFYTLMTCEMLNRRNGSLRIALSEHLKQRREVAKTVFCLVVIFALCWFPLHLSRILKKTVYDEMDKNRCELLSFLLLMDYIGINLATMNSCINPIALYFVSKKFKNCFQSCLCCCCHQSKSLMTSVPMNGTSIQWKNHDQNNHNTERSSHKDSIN
The experiment in a line: Endothelin Receptor Binding Assay-A (ETA), intact cell binding of [125I]-ET-1. More on the design: species or system rabbit. To be noted: Table IIa; rabbit renal artery vascular smooth muscle cells; read-out: Binding Assay IC50 at Receptor Subtypes ETA. On the procedure:
The cells used were rabbit renal artery vascular smooth muscle cells grown in a 48-well dish (1 cm^2) (confluent cells).
The growth media was Dulbeccos Modified Eagles/Ham's F12 which contained 10 fetal bovine serum and antibiotics (penicillin/streptomycin/fungizone).
Second, remove the assay buffers, place the dish on ice, and add 150 μL of cold assay buffer described above to each well. […] Next, place dish in a 37° C. water bath for about 2 hours and gently agitate the dish every 15 minutes. Discard the radioactive incubation mixture in the sink and wash wells 3 times with 1 mL of cold phosphate buffered saline. Last, add […] of 0.25M sodium hydroxide, agitate for 1 hour on rotator, and then transfer the sodium hydroxide extract to gamma counting tubes and count the radioactivity.

The target of a further experiment is T2, ETB (Rattus norvegicus, UniProt P21451).
T2 construct: thaw one aliquot of frozen rat cerebellar membranes; from tissue; host or cells: rat cerebellar membranes
T2 sequence (P21451 27-442): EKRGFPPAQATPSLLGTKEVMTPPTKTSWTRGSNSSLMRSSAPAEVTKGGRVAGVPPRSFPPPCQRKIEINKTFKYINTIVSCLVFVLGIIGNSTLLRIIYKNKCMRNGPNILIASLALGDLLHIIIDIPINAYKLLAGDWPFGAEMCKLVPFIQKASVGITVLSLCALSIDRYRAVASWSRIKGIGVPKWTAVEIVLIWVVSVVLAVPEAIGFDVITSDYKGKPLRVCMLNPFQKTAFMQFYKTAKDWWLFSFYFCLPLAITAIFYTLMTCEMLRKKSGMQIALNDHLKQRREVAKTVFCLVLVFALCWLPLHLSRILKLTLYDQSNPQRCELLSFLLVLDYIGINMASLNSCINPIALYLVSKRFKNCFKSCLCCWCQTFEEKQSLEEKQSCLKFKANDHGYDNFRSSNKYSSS
Briefly: Endothelin Receptor Binding Assay-B (ETB), [125I]-ET-1 binding in rat cerebellar membranes. To be noted: Table IIa; rat cerebellar membranes; read-out: Binding Assay IC50 at Receptor Subtypes ETB. On the procedure: The tissue is made up of 20 mM tris(hydroxymethyl)aminomethane hydrochloride (Trizma) buffer, 2 mM ethylenediaminetetraacetate, 100 μM phenylmethylsulfonyl fluoride.
First, thaw one aliquot of frozen rat cerebellar membranes (2 mg protein in 0.5 mL). Next, add 0.5 mL membrane aliquot to 4.5 mL cold tissue buffer, polytron at 7,500 revolutions per minute for 10 seconds. Finally, dilute tissue suspension 1/100 (0.1 mL suspension+9.9 mL tissue buffer), polytron again, and place ice.
Mix in 150 μL of tissue to each tube, vortex briefly, then tap to force all liquids to bottom (total assay volume=250 μL). Then place the tubes in a 37° C. water bath for 2 hours.
Add 2.5 mL cold water buffer (50 mM Trizma buffer) to each tube, filter, and then wash tube with additional 2.5 mL wash buffer and add to filter. Finally, wash filters with an additional 2.5 mL of cold wash buffer.
Count filters for radioactivity in gamma counter.

Numbered stars: 1 amine (or outer) side, 2 acyl side, 3 side chain; on linkers, the order of the positions; unused ones are H or OH. Square brackets hold non-standard residues; d marks the D form. Peptide text beside a SMILES is read from it. * marks the point of attachment. X3 = Cc1c(C)c(C)c(C[C@@H](N[*:1])C(=O)[*:2])c(C)c1C; X2 = O=C([C@@H](Cc1c2ccccc2cc2ccccc12)N[*:1])[*:2]; dDip = N[C@@H](C(=O)O)C(c1ccccc1)c1ccccc1; Cyclohexylacetyl = O=C(CC1CCCCC1)*; Orn = NCCC[C@H](N)C(=O)O

For `CC[C@H](C)[C@H](NC(=O)[C@H](CC(=O)O)NC(=O)[C@H](CC(C)C)NC(=O)[C@H](N)Cc1c2ccccc2cc2ccccc12)C(=O)N[C@H](C(=O)N[C@@H](Cc1c[nH]c2ccccc12)C(=O)O)[C@@H](C)CC` [Example 54, D--Ana--Leu--Asp--Ile--Ile--Trp] (H-[X2]LDIIW-OH), the IC50 on ETA turned out to be 5860 nM; at ETB, 1210 nM.

On to `CC[C@H](C)[C@H](NC(=O)[C@H](CC(=O)O)NC(=O)[C@H](CC(C)C)NC(=O)[C@@H](Cc1c(C)c(C)c(C)c(C)c1C)NC(C)=O)C(=O)N[C@H](C(=O)N[C@@H](Cc1c[nH]c2ccccc12)C(=O)O)[C@@H](C)CC` [Example 53, Ac--D--Pmp--Leu--Asp--Ile--Ile--Trp] (Ac-[X3]LDIIW-OH), for which the IC50 was determined as 1500 nM at ETA and 5500 nM at ETB.

Regarding `CC[C@H](C)[C@H](NC(=O)[C@H](CC(=O)O)NC(=O)[C@H](CC(C)C)NC(=O)[C@H](NC(=O)CC1CCCCC1)C(c1ccccc1)c1ccccc1)C(=O)N[C@H](C(=O)N[C@@H](Cc1c[nH]c2ccccc12)C(=O)O)[C@@H](C)CC` [Example 34, Cxl--D--Dip--Leu--Asp--Ile--Ile--Trp] (Cyclohexylacetyl-[dDip]LDIIW-OH), the 50% inhibitory concentration (IC50) at ETA stood at 3400 nM; on ETB it was 200 nM.

On to `CC[C@H](C)[C@H](NC(=O)[C@H](CC(=O)O)NC(=O)[C@H](CC(C)C)NC(=O)[C@@H](Cc1ccccc1)NC(C)=O)C(=O)N[C@H](C(=O)N[C@@H](Cc1c[nH]c2ccccc12)C(=O)O)[C@@H](C)CC` [Example 1, Ac--D--Phe--Leu--Asp--Ile--Ile--Trp] (Ac-[dF]LDIIW-OH), for which the IC50 on ETB came to 3300 nM.

For the compound `CC[C@H](C)[C@H](NC(=O)[C@H](CC(=O)O)NC(=O)[C@@H](Cc1ccccc1)NC(=O)[C@@H](Cc1ccccc1)NC(C)=O)C(=O)N[C@H](C(=O)N[C@@H](Cc1c[nH]c2ccccc12)C(=O)O)[C@@H](C)CC` [Example 61, Ac--D--Phe--D--Phe--Asp--Ile--Ile--Trp] (Ac-[dF][dF]DIIW-OH), the IC50 at ETB amounted to 10 nM.

As to `CC[C@H](C)[C@H](NC(=O)[C@H](Cc1ccccc1)NC(=O)[C@H](CC(C)C)NC(=O)[C@@H](Cc1ccccc1)NC(C)=O)C(=O)N[C@H](C(=O)N[C@@H](Cc1c[nH]c2ccccc12)C(=O)O)[C@@H](C)CC` [Example 67, Ac--D--Phe--Leu--Phe--Ile--Ile--Trp] (Ac-[dF]LFIIW-OH), the IC50 on ETB was determined as 35 nM.

On to `CC[C@H](C)[C@H](NC(=O)[C@H](CC(=O)O)NC(=O)[C@H](CC(C)C)NC(=O)[C@H](N)C(c1ccccc1)c1ccccc1)C(=O)N[C@H](C(=O)N[C@@H](Cc1c[nH]c2ccccc12)C(=O)O)[C@@H](C)CC` [Example 49, D--Dip--Leu--Asp--Ile--Ile--Trp] (H-[dDip]LDIIW-OH), for which the IC50 at ETA is 2100 nM.

`CC[C@H](C)[C@H](NC(=O)[C@H](CC(=O)O)NC(=O)[C@H](CC(C)C)NC(=O)[C@@H](Cc1ccc(O)cc1)NC(C)=O)C(=O)N[C@H](C(=O)N[C@@H](Cc1c[nH]c2ccccc12)C(=O)O)[C@@H](C)CC` [Example 10, Ac--D--Tyr--Leu--Asp--Ile--Ile--Trp] (Ac-[dY]LDIIW-OH): the IC50 at ETA amounted to 400 nM.

Take `CC[C@H](C)[C@H](NC(=O)[C@H](CC(=O)O)NC(=O)[C@H](Cc1ccccc1)NC(=O)[C@@H](Cc1ccccc1)NC(C)=O)C(=O)N[C@H](C(=O)N[C@@H](Cc1c[nH]c2ccccc12)C(=O)O)[C@@H](C)CC` [Example 60, Ac--D--Phe--Phe--Asp--Ile--Ile--Trp] (Ac-[dF]FDIIW-OH): the IC50 at ETB worked out at 300 nM.

Turning to `CC[C@H](C)[C@H](NC(=O)[C@H](CC(=O)O)NC(=O)[C@H](CCCN)NC(=O)[C@@H](Cc1ccccc1)NC(C)=O)C(=O)N[C@H](C(=O)N[C@@H](Cc1c[nH]c2ccccc12)C(=O)O)[C@@H](C)CC` [Example 8, Ac--D--Phe--Orn--Asp--Ile--Ile--Trp] (Ac-[dF][Orn]DIIW-OH), the IC50 at ETB amounted to 4000 nM.
